Data: publication PMC11799985 (ACS Omega, 2024)
Where “and” joins values, the source holds several entries; their conditions need not be identical. Equal entries are not always repeated. Where two headings read alike, the source gives them in different places.

What was measured:
[1] = tested on: LiSir2rp1; parameters: method as in PMID 26014945, PMID 29357372, PMID 28241112, PMID 19937668, PMID 19060927; conditions: cited from earlier work
[2] = tested on: L. infantum amastigote; parameters: method as in PMID 26014945, PMID 29357372, PMID 28241112, PMID 19937668, PMID 19060927; conditions: cited from earlier work
[3] = tested on: L. donovani amastigote; parameters: method as in PMID 26014945, PMID 29357372, PMID 28241112, PMID 19937668, PMID 19060927; conditions: cited from earlier work
[4] = tested on: T. cruzi amastigote; parameters: method as in PMID 26014945, PMID 29357372, PMID 28241112, PMID 19937668, PMID 19060927; conditions: cited from earlier work
[5] = tested on: T. cruzi epimastigote; parameters: method as in PMID 26014945, PMID 29357372, PMID 28241112, PMID 19937668, PMID 19060927; conditions: cited from earlier work
[6] = target: T1, TbSir2rp1 (Trypanosoma brucei brucei, UniProt Q57V41); test: biochemical; format: biochemical
T1 construct: The TbSir2rp1 gene was cloned into the pET24(+) expression plasmid (Novagen); His tag; made in house; host or cells: Escherichia coli BL21-Codon Plus (DE3)-RIL
T1 sequence (Q57V41 1-351): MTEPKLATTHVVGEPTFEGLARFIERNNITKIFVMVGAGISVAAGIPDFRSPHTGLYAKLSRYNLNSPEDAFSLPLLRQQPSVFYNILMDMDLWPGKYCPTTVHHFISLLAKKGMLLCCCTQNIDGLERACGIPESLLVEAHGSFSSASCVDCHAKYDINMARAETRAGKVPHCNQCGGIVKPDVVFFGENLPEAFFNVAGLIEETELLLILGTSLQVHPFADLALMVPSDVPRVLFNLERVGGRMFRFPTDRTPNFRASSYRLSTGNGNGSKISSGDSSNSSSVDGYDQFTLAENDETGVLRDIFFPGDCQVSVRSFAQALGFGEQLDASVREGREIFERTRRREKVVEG

[7] = tested on: TcSir2rp3; parameters: method as in PMID 26014945, PMID 29357372, PMID 28241112, PMID 19937668, PMID 19060927; conditions: cited from earlier work
[8] = target: T1, TbSir2rp1; test: biochemical; conditions: for IC50: enzyme 1 μM, NAD+ 100 μM, acetylated peptide 50 μM, 37 °C, 2 h; for ligand efficiency (LE): LE = –R·T·ln(IC50)/HAC, from TbSir2rp1 IC50; for Hill coefficient (nH): concentration–response curve against TbSir2rp1
Procedure: The acetylated peptide corresponds to the sequence Abz-Gly-Pro-acetylLys-SerGln–EDDnp, where Abz is ortho-aminobenzoic acid and EDDnp is N-[2,4-dinitrophenyl]ethylenediamine.
To halt the deacetylation reaction, 4 mM nicotinamide was used. For each pair of wells in the 96-well plate, 0.2 mg/mL of trypsin was added to only one well to hydrolyze the acetylated peptide, enabling fluorescence emission. Fluorescence was measured immediately at 420 nm with excitation at 320 nm using a SpectraMax M2 microplate reader (Molecular Devices).
Deacetylation activity was determined by the difference between the well where trypsin was added and the well without trypsin. All assays were performed in triplicate, and activity values were reported as means ± standard deviations with outliers identified and excluded from the calculations. Statistical analyses were conducted using Prism 7 software (GraphPad).
The screening of the 90 fragments was performed at a single concentration of 500 μM in triplicate. The enzyme was used at 1 μM, and the substrates NAD^+ and acetylated peptide were used at 100 and 50 μM, respectively. Incubation was carried out at 37.0 °C for 2 h. Each fragment was added to a pair of wells, with trypsin being added to only one well, as previously described for inhibitory activity calculation. […] Ligand efficiency (LE) was calculated as LE = –R·T·ln(IC50)/HAC using IC50 values instead of KD for comparison. […] The inhibition mechanism was characterized using Lineweaver–Burk plots under five concentrations of each substrate and three concentrations of the fragment. IC50 values were determined with at least seven different concentrations, and Lineweaver–Burk analysis used six concentrations.

[9] = tested on: T. cruzi; parameters: method as in PMID 34936867; conditions: T. cruzi-infected mice; cited from earlier work
[10] = tested on: T. brucei; parameters: method as in PMID 7097719; conditions: cited from earlier work
[11] = tested on: infected mice; conditions: cited from earlier work
[12] = tested on: human lung cells (WI-26VA-4); parameters: method as in PMID 33295837; conditions: WI-26VA-4 human lung cells; cited from earlier work
[13] = read-out: % Inhibition TbSir2rp1, Table S2, complete fragment library, single concentration of 500 μM
[14] = read-out: % Inhibition TbSir2rp1 at 500 μM, Table 1, fragment 500 μM, triplicate, mean ± SD

CC(NC(=O)c1ccccc1/N=C/c1c(O)ccc2ccccc12)c1ccccc1 (centres unmarked) [sirtinol]
IC50 [1]: 194 µM | EC50 [2]: 30 µM | EC50 [3]: 5 µM

O=c1[nH]c(=S)[nH]c(-c2ccccc2)c1Cc1c(O)ccc2ccccc12 [cambinol]
EC50 [3]: 1.7 µM

O=C1c2cccc3cccc(c23)C(=O)N1CCCNCCCCNCCCNCCCN1C(=O)c2cccc3cccc(c23)C1=O [BNIPSpd]
EC50 [4]: 2800 nM | EC50 [5]: 13.3 µM

Cc1cc(C)nc(NS(=O)(=O)c2ccc(N)cc2)n1 [sulfamethazine]
% inhibition at 100 µM ([6]; Table S3, sulfonyl-hydrazone series, single concentration of 100 μM): Inconc.

CC(C(=O)Nc1cccc(/N=C/c2c(O)ccc3ccccc23)c1)c1ccccc1 (centres unmarked) [salermide]
IC50 [7]: 1000 nM | EC50 [5]: 10.6 µM

Cc1cc(NS(=O)(=O)c2ccc(N)cc2)no1 [sulfamethoxazole, reference compound]
inhibition at 100 µM ([6]; read-out: % inhibition at 100 µM, Table S3, sulfonyl-hydrazone series, single concentration of 100 μM): 2 ± 5.3% | inhibition of TbSir2rp1 (in words) [8]: did not induce any inhibition

O=C(/C=C/c1cccc2c1oc1ccccc12)NO [TB56]
parasite burden [9]: reduced parasite burden

Sc1nc2ccccc2s1 [Fragment 1.3]
IC50 ([8]; IC50, TbSir2rp1): 125 µM | ligand efficiency (LE) [8]: 0.54 | Hill coefficient (nH) [8]: 1.04

CCOC(=O)c1c(C)oc2ncc(Br)cc12 [CC1=C(C(OCC)=O)C2=C(O1)N=CC(Br)=C2]
inhibition at 500 µM [8, 13]: -7.1 ± 9.1%

C(=N\c1nnc(Cc2ccccc2)o1)/c1ccccc1
inhibition at 500 µM [8, 13]: 41 ± 12%

COc1cc(C)c(NC(C)=O)cn1 [COC1=NC=C(NC(C)=O)C(C)=C1]
inhibition at 500 µM [8, 13]: 1.6 ± 13%

CN1C(=O)CN=C(c2ccccc2)c2cc(Cl)ccc21
inhibition at 500 µM [8, 13]: 37 ± 2.2%

Cc1oc2ncccc2c1C(=O)O [CC1=C(C(O)=O)C2=C(O1)N=CC=C2]
inhibition at 500 µM [8, 13]: 19 ± 17%

Cc1ccc(S(=O)(=O)NN)cc1 [NNS(C1=CC=C(C)C=C1)(=O)=O]
inhibition at 500 µM [8, 13]: 53 ± 5.2%

O=C(/C=C/c1ccccc1Cl)c1ccc2c(c1)OCO2 [Fragment 12]
inhibition at 500 µM [8, 13]: 102 ± 5.9% | inhibition at 500 µM [8, 14]: 102 ± 5.9%

Nc1ccc(S(N)(=O)=O)cc1 [O=S(C1=CC=C(N)C=C1)(N)=O]
inhibition at 500 µM [8, 13]: -4.7 ± 2.3%

N/C(=N/c1ccccc1)Nc1ccccc1 [N/C(NC1=CC=CC=C1)=N/C2=CC=CC=C2]
inhibition at 500 µM [8, 13]: 2.6 ± 1.1%

O=c1ccc2ccccc2[nH]1 [Fragment 6]
ligand efficiency (LE) [8]: 0.41 | Hill coefficient (nH) [8]: 1.19 | inhibition at 500 µM [8, 13]: 60 ± 5.5% | inhibition at 500 µM [8, 14]: 59.7 ± 5.5%

NC(=O)c1ncn([C@@H]2O[C@H](CO)[C@@H](O)[C@H]2O)n1
inhibition at 500 µM [8, 13]: -11 ± 11%

Nc1ccc(Nc2ccccc2)cc1 [Fragment 1.5]
IC50 ([8]; TbSir2rp1, read-out: IC50): > 500 µM

CC(C)Cc1ccc(C(C)C(=O)O)cc1 (centres unmarked) [CC(C1=CC=C(CC(C)C)C=C1)C(O)=O]
inhibition at 500 µM [8, 13]: -2.1 ± 0.21%

O=C1Nc2ccccc2C1=O [O=C1NC2=C(C=CC=C2)C1=O]
inhibition at 500 µM [8, 13]: 49 ± 0.31%

CCC1(CC)C(=O)NC(=O)NC1=O [O=C(NC(C1(CC)CC)=O)NC1=O]
inhibition at 500 µM [8, 13]: 19 ± 6%

Cc1c(O)c2ccccc2c2nc(N)sc12 [Fragment 1]
minimum lytic concentration [10]: 100 µM | maximum tolerated dose [11]: 50 mg/kg | ligand efficiency (LE) [8]: 0.41 | IC50 ([8]; TbSir2rp1, read-out: IC50): 17.8 µM | Hill coefficient (nH) [8]: 1.22 | inhibition at 500 µM [8, 13]: 99 ± 0.47% | inhibition at 500 µM [8, 14]: 99 ± 0.5%

COC1=CC(=O)c2ccccc2C1=O [O=C(C1=C2C=CC=C1)C(OC)=CC2=O]
inhibition at 500 µM [8, 13]: 44 ± 3.7%

CC(=O)n1ncc2cc(Cl)ncc21 [ClC1=NC=C(N(C(C)=O)N=C2)C2=C1]
inhibition at 500 µM [8, 13]: 19 ± 9.9%

Nc1ccc(S(=O)(=O)c2ccc(N)cc2)cc1 [NC1=CC=C(S(C2=CC=C(N)C=C2)(=O)=O)C=C1]
inhibition at 500 µM [8, 13]: 48 ± 4.1%

O=C(O)c1ccccc1O [O=C(O)C1=CC=CC=C1O]
inhibition at 500 µM [8, 13]: -10 ± 1.7%

Cc1ccc(S(=O)(=O)N/N=C/c2cccs2)cc1 [Fragment 2]
ligand efficiency (LE) [8]: 0.31 | IC50 ([8]; TbSir2rp1, read-out: IC50): < 100 µM and 77.9 µM | Hill coefficient (nH) [8]: 0.77 | inhibition at 500 µM [8, 13]: 84 ± 2.3% | inhibition at 500 µM [8, 14]: 83.7 ± 2.3% | CC50 [12]: 226 µM

Cc1cn([C@H]2C[C@H](N=[N+]=[N-])[C@@H](CO)O2)c(=O)[nH]c1=O
inhibition at 500 µM [8, 13]: 8.2 ± 1.4%

O=C1NCCn2cccc21 [O=C1C2=CC=CN2CCN1]
inhibition at 500 µM [8, 13]: -35 ± 5%

Cc1cccc(C)c1NC1=C(O)C(=O)c2ccccc2C1=O
inhibition at 500 µM [8, 13]: 39 ± 4.6%

CCn1cc(C(=O)O)c(=O)c2ccc(C)nc21 [O=C(C1=CN(CC)C2=C(C=CC(C)=N2)C1=O)O]
inhibition at 500 µM [8, 13]: -6.5 ± 2.2%

O=c1cc(-c2ccccc2)c2c(O)cc(O)cc2o1 [OC1=CC(O)=CC(O2)=C1C(C3=CC=CC=C3)=CC2=O]
inhibition at 500 µM [8, 13]: 17 ± 27%

Cc1cc(Cl)ncc1N [ClC1=NC=C(N)C(C)=C1]
inhibition at 500 µM [8, 13]: 8.8 ± 19%

CC(C)[C@@H]1CC[C@@H](C)CC1O (some centres unmarked) [OC1[C@H](C(C)C)CC[C@@H](C)C1]
inhibition at 500 µM [8, 13]: 22 ± 5%

CN[C@@H](C)[C@H](O)c1ccccc1 [C[C@H](NC)[C@@H](C1=CC=CC=C1)O]
inhibition at 500 µM [8, 13]: 23 ± 6.4%
